Experiments:
[1] = Chronotropic activity in perfused rabbit left atrium assessed as change in heart rate (RVB = 102.31 +/- 0.07 beats/mins); format: tissue-based, Oryctolagus cuniculus, Cardiac atrium
[2] = Positive inotropic activity in perfused rabbit left atrium assessed as increase in stroke volume at 10 uM; format: functional, Oryctolagus cuniculus, Cardiac atrium
Oryctolagus cuniculus = species on record: Oryctolagus cuniculus; test: Positive inotropic activity in perfused rabbit left atrium assessed as increase in stroke volume; format: functional, tissue-based; settings: Cardiac atrium
[3] = Chronotropic activity in perfused rabbit left atrium assessed as change in heart rate (RVB = 89.51 +/- 0.09 beats/mins); format: tissue-based, Oryctolagus cuniculus, Cardiac atrium
[4] = Chronotropic activity in perfused rabbit left atrium assessed as change in heart rate (RVB = 92.52 +/- 017 beats/mins); format: tissue-based, Oryctolagus cuniculus, Cardiac atrium
[5] = Chronotropic activity in perfused rabbit left atrium assessed as change in heart rate (RVB = 105.33 +/- 0.12 beats/mins); format: tissue-based, Oryctolagus cuniculus, Cardiac atrium

With `O=C(CN1CCCN(Cc2ccccc2Br)CC1)Nc1ccc2c(c1)OCC(=O)N2` the Activity [1] was 98.64 bpm, the Activity [2] was 7.68% and the Activity (Oryctolagus cuniculus) was “Dose-dependent effect”.
`COc1cc(CN2CCCN(CC(=O)Nc3ccc4c(c3)OCC(=O)N4)CC2)ccc1OCc1ccc(Cl)cc1` showed an Activity [2] of 2.87% and an Activity [3] of 80.02 bpm.
`Cc1[nH]c(=O)c(C#N)cc1-c1ccncc1` [MILRINONE] showed an Activity [2] of 2.38%.
`COc1ccc(CN2CCCN(CC(=O)Nc3ccc4c(c3)OCC(=O)N4)CC2)cc1` gave an Activity [2] of 3.22% and an Activity [4] of 89.37 bpm.
Molecule `O=C(CN1CCCN(Cc2ccccc2F)CC1)Nc1ccc2c(c1)OCC(=O)N2` has an Activity [2] of 6.05% and an Activity [5] of 102.88 bpm.
`COc1cccc(CN2CCN(CC(=O)Nc3ccc4c(c3)OCC(=O)N4)CC2)c1` gave an Activity [2] of 3.96%.
